ChEMBL document CHEMBL1201862, “PubChem BioAssay data set” (2004)
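How tested: cells in 96-well plates exposed to compound for 48 hours at five concentrations. At the GI50, growth is halved.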 Calls of active or inactive are those of the source. No stated cut-off is given here; in the data, active = GI50 up to about 1.1 µM and inactive = higher.

Columns and labels:
Experiment in all cases: DTP human tumour cell line panel, 48 h
A498 = system: A498
COLO 205 = system: COLO 205
HCC 2998 = system: HCC 2998
HOP-92 = system: HOP-92
IGROV-1 = system: IGROV-1
K562 = system: K562
MOLT-4 = system: MOLT-4
NCI-H23 = system: NCI-H23
OVCAR-5 = system: OVCAR-5
OVCAR-8 = system: OVCAR-8
RPMI-8226 = system: RPMI-8226
RXF 393 = system: RXF 393
SF-295 = system: SF-295
SF-539 = system: SF-539
SN12C = system: SN12C
SNB-75 = system: SNB-75
SR = system: SR
TK-10 = system: TK-10
NCI/ADR-RES = system: NCI/ADR-RES

Structure (SMILES)	GI50 (A498)	GI50 (COLO 205)	GI50 (HCC 2998)	GI50 (HOP-92)	GI50 (IGROV-1)	GI50 (K562)	GI50 (MOLT-4)	GI50 (NCI-H23)	GI50 (OVCAR-5)	GI50 (OVCAR-8)	GI50 (RPMI-8226)	GI50 (RXF 393)	GI50 (SF-295)	GI50 (SF-539)	GI50 (SN12C)	GI50 (SNB-75)	GI50 (SR)	GI50 (TK-10)	GI50 (NCI/ADR-RES)
COc1ccc(CCc2ccccc2CC(=O)O)cc1	> 100 µM (inactive)	> 100 µM (inactive)	> 100 µM (inactive)	> 100 µM (inactive)	> 100 µM (inactive)	> 100 µM (inactive)	> 100 µM (inactive)	> 100 µM (inactive)	> 100 µM (inactive)	> 100 µM (inactive)	> 100 µM (inactive)	> 100 µM (inactive)	> 100 µM (inactive)	> 100 µM (inactive)	> 100 µM (inactive)	> 100 µM (inactive)	> 100 µM (inactive)	> 100 µM (inactive)	–
CN1COCc2cc3cc4c(cc3nc21)OCCO4	> 100 µM (inactive)	> 100 µM (inactive)	> 100 µM (inactive)	38.8 µM (inactive)	55 µM (inactive)	> 100 µM (inactive)	11.5 µM (inactive)	–	> 100 µM (inactive)	> 100 µM (inactive)	4.72 µM (inactive)	> 100 µM (inactive)	> 100 µM (inactive)	> 100 µM (inactive)	> 100 µM (inactive)	> 100 µM (inactive)	–	> 100 µM (inactive)	> 100 µM (inactive)
COC(=O)[C@@]12OC[C@]34C([C@@H](O)C1O)[C@@]1(C)CC(=O)C(O)=C(C)C1C[C@H]3OC(=O)[C@H](OC(=O)/C=C(/c1ccccc1)C(F)(F)F)[C@H]42 (stereo partly drawn)	1.82 µM (inactive)	6.67 µM (inactive)	1.75 µM (inactive)	2.15 µM (inactive)	2.16 µM (inactive)	4.93 µM (inactive)	0.998 µM (active)	1.48 µM (inactive)	8.75 µM (inactive)	10.5 µM (inactive)	1.56 µM (inactive)	6.05 µM (inactive)	4.18 µM (inactive)	1 µM (active)	8.69 µM (inactive)	7.8 µM (inactive)	0.655 µM (active)	7.74 µM (inactive)	–
COC1=C(C(=O)OC(C)(C)C)[C@]2(C)C(C(=O)OC(C)(C)C)C(OC)=C(C(=O)OC(C)(C)C)[C@]2(C)C1C(=O)OC(C)(C)C (stereo partly drawn)	> 100 µM (inactive)	60.4 µM (inactive)	> 100 µM (inactive)	32.9 µM (inactive)	> 100 µM (inactive)	37.5 µM (inactive)	33.9 µM (inactive)	> 100 µM (inactive)	> 100 µM (inactive)	> 100 µM (inactive)	31.3 µM (inactive)	> 100 µM (inactive)	83.4 µM (inactive)	> 100 µM (inactive)	> 100 µM (inactive)	> 100 µM (inactive)	33.6 µM (inactive)	> 100 µM (inactive)	–
CC(C)c1ccc2nc3ccc(C(=O)NCCN4CCN(c5ccccc5)CC4)cn3c(=O)c2c1	29.9 µM (inactive)	3.33 µM (inactive)	11.1 µM (inactive)	–	> 100 µM (inactive)	2.45 µM (inactive)	1.87 µM (inactive)	7.73 µM (inactive)	> 100 µM (inactive)	4.33 µM (inactive)	–	–	2.22 µM (inactive)	–	–	1.89 µM (inactive)	2.51 µM (inactive)	3.56 µM (inactive)	3.57 µM (inactive)
CC(=O)CC(=O)NC=O	> 100 µM (inactive)	> 100 µM (inactive)	> 100 µM (inactive)	> 100 µM (inactive)	> 100 µM (inactive)	> 100 µM (inactive)	> 100 µM (inactive)	> 100 µM (inactive)	> 100 µM (inactive)	> 100 µM (inactive)	> 100 µM (inactive)	> 100 µM (inactive)	> 100 µM (inactive)	> 100 µM (inactive)	> 100 µM (inactive)	> 100 µM (inactive)	> 100 µM (inactive)	> 100 µM (inactive)	–
C/C(=N/NC(=S)N1CCCC1)c1cccc(/C(C)=N\NC(=S)N2CCCC2)n1	1.29 µM (inactive)	0.785 µM (active)	1.21 µM (inactive)	–	0.881 µM (active)	0.0468 µM (active)	0.0412 µM (active)	1.88 µM (inactive)	1.7 µM (inactive)	1.11 µM (active)	2.06 µM (inactive)	1.32 µM (inactive)	0.548 µM (active)	1.36 µM (inactive)	1.14 µM (inactive)	1.21 µM (inactive)	0.0944 µM (active)	1.39 µM (inactive)	1.96 µM (inactive)
CC(=O)C1C(=O)C(=O)N(c2ccc([N+](=O)[O-])cc2)C1=O (stereo not drawn)	–	> 100 µM (inactive)	> 100 µM (inactive)	> 100 µM (inactive)	> 100 µM (inactive)	–	> 100 µM (inactive)	> 100 µM (inactive)	> 100 µM (inactive)	> 100 µM (inactive)	–	> 100 µM (inactive)	> 100 µM (inactive)	> 100 µM (inactive)	> 100 µM (inactive)	> 100 µM (inactive)	–	> 100 µM (inactive)	> 100 µM (inactive)
Cc1cc2c3c(ccc4[nH]cc(c43)CN2c2ccc(NS(C)(=O)=O)cc2)n1	41.4 µM (inactive)	> 100 µM (inactive)	30.2 µM (inactive)	24.5 µM (inactive)	48.4 µM (inactive)	90.6 µM (inactive)	3.02 µM (inactive)	20.8 µM (inactive)	> 100 µM (inactive)	29 µM (inactive)	13.5 µM (inactive)	28.9 µM (inactive)	51.9 µM (inactive)	–	–	16.9 µM (inactive)	–	26.2 µM (inactive)	> 100 µM (inactive)
CN(C)c1ccc(/C=C(/NC(=O)c2ccccc2)c2nc3cc(Cl)ccc3[nH]2)cc1	72.3 µM (inactive)	20.7 µM (inactive)	18.5 µM (inactive)	> 100 µM (inactive)	> 100 µM (inactive)	19 µM (inactive)	20.9 µM (inactive)	8.51 µM (inactive)	26 µM (inactive)	35.3 µM (inactive)	19.1 µM (inactive)	30.2 µM (inactive)	28 µM (inactive)	55.8 µM (inactive)	47.9 µM (inactive)	17.9 µM (inactive)	30.3 µM (inactive)	64.4 µM (inactive)	–
CCC1(O)C(=O)OCc2c1cc1n(c2=O)Cc2cc3ccc(CO)cc3nc2-1 (stereo not drawn)	7.82 µM (inactive)	14.2 µM (inactive)	8.26 µM (inactive)	16.3 µM (inactive)	12.2 µM (inactive)	4.3 µM (inactive)	0.322 µM (active)	2.07 µM (inactive)	8.97 µM (inactive)	2.62 µM (inactive)	7.08 µM (inactive)	7.26 µM (inactive)	3.18 µM (inactive)	1.42 µM (inactive)	1.53 µM (inactive)	2.18 µM (inactive)	0.0646 µM (active)	> 95.3 µM (inactive)	–
